Laboratory results reported in patent US20210283107A1, “Methods to Expand the Spectrum of Gram-Positive Antibiotics” (NORTH CAROLINA STATE UNIVERSITY, priority 2016, published 2021).
“And” between values parts separate entries of the source, which are not always exact repeats. Equal values may be shown once.

Columns and labels:
AB5075 [1] = test: Checkerboard assay for FIC determination with colistin; type: cell-based, Acinetobacter baumannii; conditions: chequerboard, ΣFIC≥2 considered antagonistic
Method: Against AB5075, we determined that the ΣFIC with compound 1 to be 17 and the ΣFIC with compound 10 to be 33. These ΣFIC values indicate that both compounds are highly antagonistic with colistin as a ΣFIC≥2 is considered antagonistic.
Day Cultures (6 h) of A. baumannii 5075 were subcultured to 5×10^5 CFU/mL in cation adjusted Mueller-Hinton broth (CAMHB). 100 μL of the inoculated media was distributed into all wells of a 96-well plate except well 1A. Inoculated CAMHB (200 μL) containing compound (twice the highest concentration tested) was added to well 1A, and 100 μL of the same sample was added to wells 2A-12A. The contents in column A were mixed five times before 100 μL was transferred to column B. The contents of column B were mixed 5 times before transferring to column C. This process was repeated with the remainder of the columns up to column G. Column H was not mixed to allow determination of the antibiotic MIC alone. […] Row 12 was not mixed so that the MIC of the compound alone could be determined. The MICs of both compound and antibiotic alone were recorded, as well as the wells containing the combination. The ΣFICs were calculated as follows: ΣFIC=FIC (Compound)+FIC (antibiotic), where FIC (compound) is the MIC of the compound in the combination/MIC of the compound alone and the FIC (antibiotic) is the MIC of the antibiotic in combination/the MIC of the antibiotic alone. […]

A. baumannii strain 5075 = test: Time kill curve; type: cell-based, Acinetobacter baumannii; conditions: for growth similar to the control after: AB5075, time kill curve; for Initial toxicity seen until (time point): AB5075 growth, time kill curve
Method: A. baumannii strain 5075 was grown in the presence of compound 1 at either 20 μM or 30 μM, and samples were plated at 2, 4, 6, 8, and 24 hour time points. Initial toxicity was seen until the 4-hour time point for 20 μM and 8-hour time point for 30 μM; however, growth was similar to the control after 6 hours for 20 μM and 24 hours for 30 μM.
A. baumannii 5075 was grown overnight (16 hours) in CAMHB at 37° C. with shaking. This culture was then subcultured to 5×10^5 CFU/mL in fresh CAMHB. The inoculated media was aliquoted (3 mL) into culture tubes, and the compound was added from 100 mM stock solutions. Untreated inoculated culture tubes served as the control, and tubes were incubated at 37° C. with shaking. Samples were taken at 2, 4, 6, 8, and 24 hour time points and were serially diluted in fresh CAMHB and plated on LB agar. Plates were incubated under stationary conditions overnight at 37° C. After incubation, colonies were enumerated and growth curves were constructed.

[2] = test system: A. baumannii mutant AB522; test: Dose dependent resistance suppression (antibiotic MIC with compound) in AB522; type: cell-based, Acinetobacter baumannii
Method: (§1) There was no notable reduction in antibiotic MIC observed with either compound and both strains 522 and 1310. […] Even at the highest concentration, no potentiation was observed.
(§2) Day Cultures (6 h) were subcultured to 5×10^5 CFU/mL in cation adjusted Mueller-Hinton broth (CAMHB). […] One milliliter of the resulting solution was aliquoted into a separate culture tube and was dosed with antibiotic so that the resulting concentration was the highest desirable concentration to be tested. Bacteria treated with antibiotic alone were used as a control. Row one of a 96-well plate was filled with 200 μL of the antibiotic/compound solution, and the remaining rows were filled with 100 μL of the remaining 4 mL bacterial subculture. The wells in row one were mixed five times before 100 μL was transferred to the following row (row two). Row two was then mixed five times, and 100 μL was transferred to row three. This process was repeated until the second to last row had been reached. The last row is left unexposed to antibiotic in order to serve as a negative control. The antibiotic only treated bacteria was plated by aliquoting 200 μL of the treated bacteria into row one and filling the remaining rows with untreated bacteria from the original bacteria subculture. The rows were mixed in the same way as described above. Plates were covered with Glad Press n'Seal and were incubated under stationary conditions at 37° C. for 16 hours. MIC values were recorded as the lowest concentration at which no bacterial growth was observed. Fold reductions were determined by comparison of the compound treated wells with the antibiotic only treated control wells.

[3] = test system: A. baumannii mutant AB1310; test: Dose dependent resistance suppression (antibiotic MIC with compound) in AB1310; type: cell-based, Acinetobacter baumannii
Method: as §1, §2

AB5075 [4] = test: G. mellonella model infected with AB5075, survival; type: in vivo, Galleria mellonella
Method: Galleria mellonella larvae (Speedy Worm, Alexandria, Minn.) were used within ten days of shipment from the vendor. After reception of worms, larvae were kept in the dark at room temperature for at least 24 h before infection. Larvae weighing between 200 to 300 mg were used in the survival assay. Using a 10 μL glass syringe (Hamilton, Reno, Nev.) fitted with a 30 G needle (Exel International, St. Petersburg, Fl), 5 μL of the desired compound and concentration were injected into the last left proleg. After 2.5 h, a second 5 μL injection containing 6×10^5 CFU of Acinetobacter baumannii 5075 was injected into the second to last left proleg. Injected worms were left at room temperature in the dark while being assessed at 24 h intervals over 6 days. […] Experiment was repeated 7 times using 10 larvae per experimental group.

With Nc1nc(-c2ccc(NC(=O)c3cc(Cl)cc(Cl)c3)cc2)c[nH]1 [Compound 1] the ΣFIC with colistin (AB5075 [1]) was 17, the “growth similar to the control after” value (A. baumannii strain 5075; compound alone at 20 μM) was 6 h and the “Initial toxicity seen until (time point)” value (A. baumannii strain 5075; compound alone at 20 μM) was 4 h. The “growth similar to the control after” value (A. baumannii strain 5075; compound alone at 30 μM) was 24 h, the “Initial toxicity seen until (time point)” value (A. baumannii strain 5075; compound alone at 30 μM) was 8 h and the “Azithromycin MIC” value ([2]; compound Conc. Tested 2 (μM)) was 8 µg/mL and 4 µg/mL. The “Clarithromycin MIC” value ([2]; compound Conc. Tested 2 (μM)) was 1 µg/mL, the “Erythromycin MIC” value ([2]; compound Conc. Tested 2 (μM)) was 2 µg/mL and the “Vancomycin MIC” value ([2]; compound Conc. Tested 2 (μM)) was 64 µg/mL. The “Azithromycin MIC” value ([2]; compound Conc. Tested 3 (μM)) was 4 µg/mL and 8 µg/mL, the “Clarithromycin MIC” value ([2]; compound Conc. Tested 3 (μM)) was 1 µg/mL and the “Erythromycin MIC” value ([2]; compound Conc. Tested 3 (μM)) was 2 µg/mL and 4 µg/mL. For the same compound, the “Vancomycin MIC” value ([2]; compound Conc. Tested 3 (μM)) was 64 µg/mL, the “Azithromycin MIC” value ([2]; compound Conc. Tested 4 (μM)) was 4 µg/mL and the “Clarithromycin MIC” value ([2]; compound Conc. Tested 4 (μM)) was 1 µg/mL. For the same compound, the “Erythromycin MIC” value ([2]; compound Conc. Tested 4 (μM)) was 4 µg/mL and 2 µg/mL, the “Vancomycin MIC” value ([2]; compound Conc. Tested 4 (μM)) was 32 µg/mL and the “Azithromycin MIC” value ([2]; compound Conc. Tested 5 (μM)) was 4 µg/mL. The “Clarithromycin MIC” value ([2]; compound Conc. Tested 5 (μM)) was 0.5 µg/mL, the “Erythromycin MIC” value ([2]; compound Conc. Tested 5 (μM)) was 2 µg/mL and the “Vancomycin MIC” value ([2]; compound Conc. Tested 5 (μM)) was 32 µg/mL. For the same compound, the “Azithromycin MIC” value ([3]; compound Conc. Tested 2 (μM)) was 4 µg/mL, the “Clarithromycin MIC” value ([3]; compound Conc. Tested 2 (μM)) was 1 µg/mL and the “Erythromycin MIC” value ([3]; compound Conc. Tested 2 (μM)) was 4 µg/mL. The “Vancomycin MIC” value ([3]; compound Conc. Tested 2 (μM)) was 64 µg/mL, the “Azithromycin MIC” value ([3]; compound Conc. Tested 3 (μM)) was 4 µg/mL and the “Clarithromycin MIC” value ([3]; compound Conc. Tested 3 (μM)) was 1 µg/mL. For the same compound, the “Erythromycin MIC” value ([3]; compound Conc. Tested 3 (μM)) was 2 µg/mL, the “Vancomycin MIC” value ([3]; compound Conc. Tested 3 (μM)) was 64 µg/mL and the “Azithromycin MIC” value ([3]; compound Conc. Tested 4 (μM)) was 4 µg/mL. The “Clarithromycin MIC” value ([3]; compound Conc. Tested 4 (μM)) was 0.5 µg/mL, the “Erythromycin MIC” value ([3]; compound Conc. Tested 4 (μM)) was 4 µg/mL and the “Vancomycin MIC” value ([3]; compound Conc. Tested 4 (μM)) was 64 µg/mL. The “Azithromycin MIC” value ([3]; compound Conc. Tested 5 (μM)) was 4 µg/mL, the “Clarithromycin MIC” value ([3]; compound Conc. Tested 5 (μM)) was 0.5 µg/mL and the “Erythromycin MIC” value ([3]; compound Conc. Tested 5 (μM)) was 2 µg/mL. For the same compound, the “Vancomycin MIC” value ([3]; compound Conc. Tested 5 (μM)) was 32 µg/mL, the “survival rate after 6 days” value (AB5075 [4]; combination treatment of clarithromycin (25 mg/kg) and compound 1 (100 mg/kg)) was 42% and the “survival after 6 days” value (AB5075 [4]; compound 1 alone at 100 mg/kg) was 5%.
In the case of Nc1nc(-c2ccc(NC(=O)c3cc(Br)cc(Br)c3)cc2)c[nH]1 [Compound 4], the “Azithromycin MIC” value ([3]; compound Conc. Tested 2 (μM)) is reported as 4 µg/mL, the “Clarithromycin MIC” value ([3]; compound Conc. Tested 2 (μM)) is reported as 2 µg/mL and the “Erythromycin MIC” value ([3]; compound Conc. Tested 2 (μM)) is reported as 4 µg/mL. For the same compound, the “Vancomycin MIC” value ([3]; compound Conc. Tested 2 (μM)) was 64 µg/mL, the “Azithromycin MIC” value ([3]; compound Conc. Tested 3 (μM)) was 4 µg/mL and the “Clarithromycin MIC” value ([3]; compound Conc. Tested 3 (μM)) was 1 µg/mL. The “Erythromycin MIC” value ([3]; compound Conc. Tested 3 (μM)) was 2 µg/mL, the “Vancomycin MIC” value ([3]; compound Conc. Tested 3 (μM)) was 32 µg/mL and the “Azithromycin MIC” value ([3]; compound Conc. Tested 4 (μM)) was 4 µg/mL. The “Clarithromycin MIC” value ([3]; compound Conc. Tested 4 (μM)) was 1 µg/mL, the “Erythromycin MIC” value ([3]; compound Conc. Tested 4 (μM)) was 2 µg/mL and the “Vancomycin MIC” value ([3]; compound Conc. Tested 4 (μM)) was 32 µg/mL. For the same compound, the “Azithromycin MIC” value ([3]; compound Conc. Tested 5 (μM)) was 4 µg/mL, the “Clarithromycin MIC” value ([3]; compound Conc. Tested 5 (μM)) was 0.5 µg/mL and the “Erythromycin MIC” value ([3]; compound Conc. Tested 5 (μM)) was 2 µg/mL. For the same compound, the “Vancomycin MIC” value ([3]; compound Conc. Tested 5 (μM)) was 32 µg/mL.
